From ChEMBL document CHEMBL4393707, “Synthesis and evaluation of new quinazolin-4(3H)-one derivatives as potent antibacterial agents against multidrug resistant Staphylococcus aureus and Mycobacterium tuberculosis” (Eur J Med Chem, 2019)
Converted amounts (≈) assume the structure as drawn.

Key:
Staphylococcus aureus [1] = assay: Antibacterial activity against methicillin-resistant Staphylococcus aureus NR10129 incubated for 16 to 18 hrs by broth microdilution assay; format: functional
Staphylococcus aureus [2] = assay: Antibacterial activity against methicillin-resistant Staphylococcus aureus NR10194 incubated for 16 to 18 hrs by broth microdilution assay; format: functional
Staphylococcus aureus [3] = assay: Antibacterial activity against methicillin-susceptible Staphylococcus aureus ATCC 29213 incubated for 16 to 18 hrs by broth microdilution assay; format: functional
Staphylococcus aureus [4] = assay: Antibacterial activity against vancomycin-resistant Staphylococcus aureus VRS12 incubated for 16 to 18 hrs by broth microdilution assay; format: functional
Staphylococcus aureus [5] = assay: Potentiation of gentamycin-induced antibacterial activity against Staphylococcus aureus ATCC 29213 assessed as gentamycin MIC incubated for 24 hrs by checkerboard titration assay (reference value: 0.25 ug/ml); format: functional; conditions: ATCC 29213, 24 h
Staphylococcus aureus [6] = assay: Synergistic antibacterial activity against Staphylococcus aureus ATCC 29213 incubated for 24 hrs in presence of rifampicin by checkerboard titration assay; format: functional; conditions: ATCC 29213, 24 h
Staphylococcus aureus [7] = assay: Synergistic antibacterial activity against Staphylococcus aureus ATCC 29213 incubated for 24 hrs in presence of levofloxacin by checkerboard titration assay; format: functional; conditions: ATCC 29213, 24 h
Staphylococcus aureus [8] = assay: Synergistic antibacterial activity against Staphylococcus aureus ATCC 29213 assessed as sum of FIC for test compound in presence of rifampicin and FIC for rifampicin in presence of test compound incubated for 24 hrs by checkerboard titration assay; format: functional
Staphylococcus aureus [9] = assay: Antibacterial activity against methicillin-resistant Staphylococcus aureus NR119 incubated for 16 to 18 hrs by broth microdilution assay; format: functional
Staphylococcus aureus [10] = assay: Synergistic antibacterial activity against Staphylococcus aureus ATCC 29213 assessed as sum of FIC for test compound in presence of daptomycin and FIC for daptomycin in presence of test compound incubated for 24 hrs by checkerboard titration assay; format: functional
Staphylococcus aureus [11] = assay: Antibacterial activity against vancomycin-resistant Staphylococcus aureus VRS4 incubated for 16 to 18 hrs by broth microdilution assay; format: functional
[12] = Selectivity index, ratio of CC50 for African green monkey Vero cells to MIC for Staphylococcus aureus ATCC 29213; format: toxicity; conditions: read-out: Selectivity Index
Staphylococcus aureus [13] = assay: Synergistic antibacterial activity against Staphylococcus aureus ATCC 29213 assessed as sum of FIC for test compound in presence of ceftazidime and FIC for ceftazidime in presence of test compound incubated for 24 hrs by checkerboard titration assay; format: functional
Acinetobacter baumannii = assay: Antibacterial activity against Acinetobacter baumannii BAA1605 incubated for 16 to 18 hrs by broth microdilution assay; format: functional
Klebsiella pneumoniae = assay: Antibacterial activity against Klebsiella pneumoniae ATCC BAA-1705 incubated for 16 to 18 hrs by broth microdilution assay; format: functional
Staphylococcus aureus [14] = assay: Synergistic antibacterial activity against Staphylococcus aureus ATCC 29213 assessed as FIC incubated for 24 hrs in presence of ceftazidime by checkerboard titration assay; format: functional
[15] = tested on: Mycobacterium tuberculosis; assay: Antitubercular activity against Mycobacterium tuberculosis H37Rv after 7 days by resazurin dye based assay; format: functional; conditions: 168 h
Staphylococcus aureus [16] = assay: Potentiation of levofloxacin-induced antibacterial activity against Staphylococcus aureus ATCC 29213 assessed as levofloxacin MIC incubated for 24 hrs by checkerboard titration assay (reference value: 0.25 ug/ml); format: functional; conditions: ATCC 29213, 24 h
Staphylococcus aureus [17] = assay: Synergistic antibacterial activity against Staphylococcus aureus ATCC 29213 incubated for 24 hrs in presence of linezolid by checkerboard titration assay; format: functional; conditions: ATCC 29213, 24 h
Staphylococcus aureus [18] = assay: Synergistic antibacterial activity against Staphylococcus aureus ATCC 29213 assessed as sum of FIC for test compound in presence of levofloxacin and FIC for levofloxacin in presence of test compound incubated for 24 hrs by checkerboard titration assay; format: functional
Staphylococcus aureus [19] = assay: Antibacterial activity against methicillin-resistant Staphylococcus aureus NR10186 incubated for 16 to 18 hrs by broth microdilution assay; format: functional
Staphylococcus aureus [20] = assay: Synergistic antibacterial activity against Staphylococcus aureus ATCC 29213 assessed as FIC incubated for 24 hrs in presence of rifampicin by checkerboard titration assay; format: functional
Escherichia coli = assay: Antibacterial activity against Escherichia coli ATCC 25922 incubated for 16 to 18 hrs by broth microdilution assay; format: functional
Staphylococcus aureus [21] = assay: Synergistic antibacterial activity against Staphylococcus aureus ATCC 29213 assessed as FIC incubated for 24 hrs in presence of meropenem by checkerboard titration assay; format: functional
Staphylococcus aureus [22] = assay: Synergistic antibacterial activity against Staphylococcus aureus ATCC 29213 assessed as sum of FIC for test compound in presence of gentamycin and FIC for gentamycin in presence of test compound incubated for 24 hrs by checkerboard titration assay; format: functional
Staphylococcus aureus [23] = assay: Synergistic antibacterial activity against Staphylococcus aureus ATCC 29213 assessed as FIC incubated for 24 hrs in presence of gentamycin by checkerboard titration assay; format: functional
Staphylococcus aureus [24] = assay: Synergistic antibacterial activity against Staphylococcus aureus ATCC 29213 incubated for 24 hrs in presence of daptomycin by checkerboard titration assay; format: functional; conditions: ATCC 29213, 24 h
Staphylococcus aureus [25] = assay: Antibacterial activity against methicillin-resistant Staphylococcus aureus NR10191 incubated for 16 to 18 hrs by broth microdilution assay; format: functional
Staphylococcus aureus [26] = assay: Synergistic antibacterial activity against Staphylococcus aureus ATCC 29213 assessed as FIC incubated for 24 hrs in presence of vancomycin by checkerboard titration assay; format: functional
Staphylococcus aureus [27] = assay: Potentiation of linezolid-induced antibacterial activity against Staphylococcus aureus ATCC 29213 assessed as FIC incubated for 24 hrs by checkerboard titration assay; format: functional
Staphylococcus aureus [28] = assay: Synergistic antibacterial activity against Staphylococcus aureus ATCC 29213 incubated for 24 hrs in presence of ceftazidime by checkerboard titration assay; format: functional; conditions: ATCC 29213, 24 h
Staphylococcus aureus [29] = assay: Synergistic antibacterial activity against Staphylococcus aureus ATCC 29213 incubated for 24 hrs in presence of vancomycin by checkerboard titration assay; format: functional; conditions: ATCC 29213, 24 h
Staphylococcus aureus [30] = assay: Potentiation of ceftazidime-induced antibacterial activity against Staphylococcus aureus ATCC 29213 assessed as FIC incubated for 24 hrs by checkerboard titration assay; format: functional
Staphylococcus aureus [31] = assay: Potentiation of levofloxacin-induced antibacterial activity against Staphylococcus aureus ATCC 29213 assessed as FIC incubated for 24 hrs by checkerboard titration assay; format: functional
Staphylococcus aureus [32] = assay: Antibacterial activity against methicillin-resistant Staphylococcus aureus NR10192 incubated for 16 to 18 hrs by broth microdilution assay; format: functional
Staphylococcus aureus [33] = assay: Potentiation of daptomycin-induced antibacterial activity against Staphylococcus aureus ATCC 29213 assessed as FIC incubated for 24 hrs by checkerboard titration assay; format: functional
Staphylococcus aureus [34] = assay: Synergistic antibacterial activity against Staphylococcus aureus ATCC 29213 assessed as sum of FIC for test compound in presence of vancomycin and FIC for vancomycin in presence of test compound incubated for 24 hrs by checkerboard titration assay; format: functional
[35] = Cytotoxicity against African green monkey Vero cells assessed as reduction in cell viability after 72 hrs by MTT assay; format: cell-based; conditions: chlorocebus sabaeus
Staphylococcus aureus [36] = assay: Synergistic antibacterial activity against Staphylococcus aureus ATCC 29213 assessed as FIC incubated for 24 hrs in presence of daptomycin by checkerboard titration assay; format: functional
Staphylococcus aureus [37] = assay: Potentiation of gentamycin-induced antibacterial activity against Staphylococcus aureus ATCC 29213 assessed as FIC incubated for 24 hrs by checkerboard titration assay; format: functional
Staphylococcus aureus [38] = assay: Synergistic antibacterial activity against Staphylococcus aureus ATCC 29213 assessed as FIC incubated for 24 hrs in presence of minocycline by checkerboard titration assay; format: functional

## N#Cc1ccc(/C=C/c2nc3ccccc3c(=O)n2-c2ccc(C(=O)O)c(O)c2)cc1
Staphylococcus aureus [1]
  MIC: < 0.125 µg/mL
Staphylococcus aureus [2]
  MIC: < 0.125 µg/mL
Staphylococcus aureus [3]
  MIC: < 0.125 µg/mL
Staphylococcus aureus [4]
  MIC: 0.125 µg/mL (≈ 0.305 µM)
Staphylococcus aureus [5]
  MIC: 0.0019 µg/mL
Staphylococcus aureus [6]
  MIC: 0.0019 µg/mL
Staphylococcus aureus [7]
  MIC: 0.0019 µg/mL
Staphylococcus aureus [8]
  FIC: 0.034
Staphylococcus aureus [9]
  MIC: 0.125 to 0.25 µg/mL (≈ 0.305 to 0.611 µM)
Staphylococcus aureus [10]
  FIC: 0.036
Staphylococcus aureus [11]
  MIC: 0.125 µg/mL (≈ 0.305 µM)
[12]
  selectivity ratio: > 167
Staphylococcus aureus [13]
  FIC: 0.034
Acinetobacter baumannii
  MIC: > 64 µg/mL
Klebsiella pneumoniae
  MIC: > 64 µg/mL
Staphylococcus aureus [14]
  FIC: 0.032
[15]
  MIC: 64 µg/mL (≈ 156 µM)
Staphylococcus aureus [16]
  MIC: 0.0009 µg/mL
Staphylococcus aureus [17]
  MIC: 0.0019 µg/mL
Staphylococcus aureus [18]
  FIC: 0.036
Staphylococcus aureus [19]
  MIC: < 0.125 µg/mL
Staphylococcus aureus [20]
  FIC: 0.032
Escherichia coli
  MIC: > 64 µg/mL
Staphylococcus aureus [21]
  FIC: 0.032
Staphylococcus aureus [22]
  FIC: 0.04
Staphylococcus aureus [23]
  FIC: 0.032
Staphylococcus aureus [24]
  MIC: 0.0019 µg/mL
Staphylococcus aureus [25]
  MIC: < 0.125 µg/mL
Staphylococcus aureus [26]
  FIC: 0.032
Staphylococcus aureus [27]
  FIC: 0.003
Staphylococcus aureus [28]
  MIC: 0.0019 µg/mL
Staphylococcus aureus [29]
  MIC: 0.0019 µg/mL
Staphylococcus aureus [30]
  FIC: 0.0019
Staphylococcus aureus [31]
  FIC: 0.003
Staphylococcus aureus [32]
  MIC: < 0.125 µg/mL
Staphylococcus aureus [33]
  FIC: 0.003
Staphylococcus aureus [34]
  FIC: 0.036
[35]
  CC50 at 72 h: > 5 µg/mL
Staphylococcus aureus [36]
  FIC: 0.032
Staphylococcus aureus [37]
  FIC: 0.007
Staphylococcus aureus [38]
  FIC: 0.032

## N#Cc1ccc(/C=C/c2nc3cccc(F)c3c(=O)n2-c2cccc(O)c2)cc1
Staphylococcus aureus [1]
  MIC: < 0.125 µg/mL
Staphylococcus aureus [2]
  MIC: 0.125 to 0.25 µg/mL (≈ 0.326 to 0.652 µM)
Staphylococcus aureus [3]
  MIC: < 0.125 µg/mL
Staphylococcus aureus [4]
  MIC: 0.125 µg/mL (≈ 0.326 µM)
Staphylococcus aureus [5]
  MIC: 0.0019 µg/mL
Staphylococcus aureus [6]
  MIC: 0.0078 µg/mL
Staphylococcus aureus [7]
  MIC: 0.0078 µg/mL
Staphylococcus aureus [8]
  FIC: 0.0645
Staphylococcus aureus [9]
  MIC: < 0.125 µg/mL
Staphylococcus aureus [10]
  FIC: 0.0644
Staphylococcus aureus [11]
  MIC: 0.125 µg/mL (≈ 0.326 µM)
[12]
  selectivity ratio: > 83.4
Staphylococcus aureus [13]
  FIC: 0.0664
Acinetobacter baumannii
  MIC: > 64 µg/mL
Klebsiella pneumoniae
  MIC: > 64 µg/mL
Staphylococcus aureus [14]
  FIC: 0.0625
[15]
  MIC: 8 µg/mL (≈ 20.9 µM)
Staphylococcus aureus [16]
  MIC: 0.0009 µg/mL
Staphylococcus aureus [17]
  MIC: 0.0078 µg/mL
Staphylococcus aureus [18]
  FIC: 0.0661
Staphylococcus aureus [19]
  MIC: < 0.125 µg/mL
Staphylococcus aureus [20]
  FIC: 0.0625
Escherichia coli
  MIC: > 64 µg/mL
Staphylococcus aureus [21]
  FIC: 0.0625
Staphylococcus aureus [22]
  FIC: 0.0703
Staphylococcus aureus [23]
  FIC: 0.0625
Staphylococcus aureus [24]
  MIC: 0.0078 µg/mL
Staphylococcus aureus [25]
  MIC: < 0.125 µg/mL
Staphylococcus aureus [26]
  FIC: 0.0625
Staphylococcus aureus [27]
  FIC: 0.0037
Staphylococcus aureus [28]
  MIC: 0.0078 µg/mL
Staphylococcus aureus [29]
  MIC: 0.0078 µg/mL
Staphylococcus aureus [30]
  FIC: 0.0039
Staphylococcus aureus [31]
  FIC: 0.0036
Staphylococcus aureus [32]
  MIC: < 0.125 µg/mL
Staphylococcus aureus [33]
  FIC: 0.0019
Staphylococcus aureus [34]
  FIC: 0.0664
[35]
  CC50 at 72 h: 5 to 100 µg/mL (≈ 13 to 261 µM)
Staphylococcus aureus [36]
  FIC: 0.0625
Staphylococcus aureus [37]
  FIC: 0.0078
Staphylococcus aureus [38]
  FIC: 0.0625
